Peptide text beside a SMILES is read from it. * marks the point of attachment. Myristoyl = CCCCCCCCCCCCCC(=O)*; Lauroyl = CCCCCCCCCCCC(=O)*; Decanoyl = CCCCCCCCCC(=O)*; Octanoyl = CCCCCCCC(=O)*
How the values were obtained:
E. coli (ATCC 11303) = experiment: microbe, parasite or virus in culture; assay type: cell-based; conditions: ATCC 11303, pH 7.4
erythrocyte membranes [1] = experiment: Hemolysis in whole blood (Kahn method); assay type: cell-based, human
Experimental: (§1) Hemolysis was tested with fresh citrate anticoagulated blood from healthy volunteers as well as with blood cells which were suspended in phosphate buffered saline (10 mM pH 7.4). Afterwards, 100 μL AMP solution was added to 500 μL blood to finally achieve AMP concentrations of 8, 32, and 128 μg/mL. As the negative and positive control, 100 μL PBS buffer and 100 μL 12% Triton-X buffer was added to 500 μL blood, respectively. After incubation on an orbital shaker for 60 min at 37 °C, the cells were removed by centrifugation and 100 μL of the supernatant were transferred to a 96 well microplate for hemolysis measurement. The hemolysis was calculated from the extinction at the wavelengths 562, 578, and 598 nm with a Synergy 2 microplate reader (BioTek, Winooski, VT, USA) according to the method published by Kahn.

erythrocyte membranes [2] = experiment: Hemolysis in RBC suspended in PBS (Kahn method); assay type: cell-based, human; conditions: pH 7.4
Experimental: as §1

S. aureus (ATCC 12600) = experiment: microbe, parasite or virus in culture; assay type: cell-based; conditions: ATCC 12600, pH 7.4
human leukocytes = experiment: Cytotoxicity on leukocytes in whole blood, flow cytometry (7-AAD); assay type: cell-based; conditions: whole blood, 128 μg/mL, flow cytometry, n = 3
Experimental: The measurement of the membrane destabilization of leukocytes by AMPs was carried out by flow cytometry. […] Whole blood without AMPs or antibiotics was used as a control. After incubation, the proportion of apoptotic and dead cells was determined by flow cytometry. To achieve this, blood samples were diluted 1:100 with 0.01 M phosphate buffered saline and centrifuged at 300 g for 10 min. The supernatant was removed, and cells were stained with 10 μL CD45 pacific blue (leukocyte marker; Beckman coulter, Brea, CA) and 10 μL 7-AAD (a marker for dead cells; Sigma-Aldrich, Steinheim, Germany) for 15 min at room temperature in the dark. After incubation, 1.8 mL lysis buffer (1:10 dilution in distilled water) was added, mixed, and incubated for 10 min at room temperature in the dark. This was followed by two washing steps (2300 g, 5 min, room temperature) and the cells were resuspended in a final volume of 200 μL 0.01 M PBS for measurement. Flow cytometry was performed using a Gallios flow cytometer (Beckman Coulter, Brea, CA, USA) equipped with 405 nm, 488 nm, and 638 nm lasers and the Kaluza Analysis Software (Beckman Coulter, Brea, CA, USA), which was used for measurement and data analysis. Blood cells which were incubated in 70% methanol before staining served as the positive control and blood cells without any additives were used as the negative control.

platelets [3] = experiment: SEM imaging of platelet morphology in PRP; assay type: cell-based, human; conditions: 128 μg/mL, 2 h, 37 °C
Experimental: (§2) Since it was observed that some AMPs are able to activate the plasmatic coagulation system of heparinized and citrate anticoagulated blood, the influence of this peptides on platelets was investigated. For this purpose, fresh heparinized and citrated blood were collected from three donors. The blood was centrifuged at 500 g for 5 min and platelet rich plasma (PRP) was obtained. The PRP was incubated at 37 °C for 2 h with 128 μg/mL AMP, PMB, and LL-37. PRP without any additives served as the control. After incubation, the platelet number was determined by a Sysmex Automated Hematology Analyzer KX-21-N (Kobe, Japan). In addition, the PRP samples were prepared for SEM to visualize the morphology of the thrombocytes. After incubation, 10 μL PRP were diluted with 990 μL PBS (0.01 M) and filtered through a 0.2 μm membrane (Membrane Filter Isopore 0.2 μm, Merck, Darmstadt, Germany). The platelets were retained on the membrane, washed with 1 mL PBS, and fixed with 1 mL glutaraldehyde solution (2.5% glutaraldehyde in physiological saline solution). After an incubation time of 60 min, the samples were dehydrated using a series of ethanol (30%, 50%, 60%, 70%, 80%, 90%, and 100%). Afterwards the samples were dried overnight at RT, sputtered with gold and visualized with a scanning electron microscope (FLEXSem 1000, Hitachi, Japan).

plasmatic coagulation = experiment: Clotting batch test in citrate plasma; assay type: biochemical, human
Experimental: Since the acylated LF11-322 peptides cause plasmatic coagulation of citrate anticoagulated plasma, separate clotting experiments were performed with this peptide group. The aim was to check whether the coagulation activation is dependent on the AMP concentration and on the acyl chain length. […] Plasma without additives served as the negative control, whereas plasma spiked with CaCl2/MgCl2 (500/250 mM) solution to restore the physiological calcium and magnesium level in plasma was used as the positive control. Incubation was performed at 37 °C for 60 min. […] In order to ensure that the measured turbidity of the plasma is caused by fibrin formation, the fibrinogen and D-Dimer concentrations were additionally determined. During plasmatic clotting, the fibrinogen level decreases and the D-Dimer level in serum increases. Both were analyzed on a Sysmex CA560 with the corresponding reagents (Siemens Healthineers, Erlangen, Germany).

LPS from P. aeruginosa = experiment: Endotoxin inactivation in human serum, chromogenic LAL test (P. aeruginosa LPS); assay type: biochemical; conditions: 500 ng/mL peptide, n = 3; for Reduction of the endotoxin activity in serum vs positive control (in words): 5 ng/mL P. aeruginosa LPS
Experimental: The LPS neutralization study in serum was conducted using a chromogenic Limulus Amebocyte Lysate (LAL) test (Charles River Laboratories, MA, USA). The LAL test is the most established method for quantifying LPS. This method uses amebocyte lysate from Limulus polyphemus, wherein the presence of LPS triggers a defense mechanism that induces coagulation. The LAL test is used successfully for detection of LPS in a wide variety of industrial, pharmaceutical, and research applications, such as water supplies, parenteral fluids, drugs for intravenous administration, and certain biologic fluids (e.g., cerebrospinal fluid). Therefore, serum, which was obtained from freshly drawn blood, was spiked with 500 ng/mL AMPs, PMB or LL-37 before adding 5 ng/mL LPS from E. coli or P. aeruginosa. As positive and negative controls, native serum with and without LPS was used, respectively. Endotoxin activity was measured using the LAL assay according to the manufacturer’s specifications.

platelets [4] = experiment: Platelet activation, platelet count in heparin anticoagulated PRP; assay type: cell-based, human; conditions: 128 μg/mL, 2 h, 37 °C, Sysmex analyzer, n = 3
Experimental: as §2

platelets [5] = experiment: Platelet activation, platelet count in citrate anticoagulated PRP; assay type: cell-based, human; conditions: 128 μg/mL, 2 h, 37 °C, Sysmex analyzer, n = 3
Experimental: as §2

Molecule	Minimal Inhibitory Concentration, E. coli, PBS (E. coli (ATCC 11303)) [µg/mL]	Free Hemoglobin, BLOOD, 8 μg/mL (erythrocyte membranes [1]) [mg/dL]	Free Hemoglobin, BLOOD, 32 μg/mL (erythrocyte membranes [1]) [mg/dL]	Free Hemoglobin, BLOOD, 128 μg/mL (erythrocyte membranes [1]) [mg/dL]	Free Hemoglobin, RBC in PBS, 8 μg/mL (erythrocyte membranes [2]) [mg/dL]	Free Hemoglobin, RBC in PBS, 32 μg/mL (erythrocyte membranes [2]) [mg/dL]	Minimal Inhibitory Concentration, S. aureus, PBS (S. aureus (ATCC 12600)) [µg/mL]	Cytotoxic effect on leukocytes in whole blood (in words) (human leukocytes)	Platelet morphology by SEM, citrate anticoagulated PRP (in words) (platelets [3])	Peptide concentration that triggers clotting of citrate plasma (plasmatic coagulation) [µg/mL]	Reduction of the endotoxin activity in serum vs positive control (in words) (LPS from P. aeruginosa)	Reduction of endotoxin activity of P. aeruginosa LPS (LPS from P. aeruginosa; 5 ng/mL LPS) [%]	Platelet count in heparinized PRP vs control (in words) (platelets [4])	Platelet count in citrate anticoagulated PRP vs control (in words) (platelets [5])
H-FWRRFWRR-NH2 [LF11-227-NH2]	8	2.4 ± 3.1	9.5 ± 12.3	2.5 ± 3.8	10.0 ± 2.2	14.6 ± 3.2	8	–	–	–	–	–	–	–
CCCCCCCCCC(=O)N1CCC[C@H]1C(=O)N[C@@H](Cc1ccccc1)C(=O)N[C@@H](Cc1c[nH]c2ccccc12)C(=O)N[C@@H](CCCNC(=N)N)C(=O)N[C@H](C(=O)N[C@@H](CCCNC(=N)N)C(=O)N[C@H](C(=O)N[C@@H](CCCNC(=N)N)C(=O)N[C@@H](CCCNC(=N)N)C(N)=O)[C@@H](C)CC)[C@@H](C)CC [LF11-322-C10] (Decanoyl-PFWRIRIRR-NH2)	8	2.5 ± 2.0	6.0 ± 4.6	3.0 ± 4.5	16.6 ± 2.4	48.5 ± 5.5	8	–	–	–	–	–	–	–
H-PFWRIRIRR-NH2 [LF11-322-NH2]	4	5.0 ± 5.3	5.9 ± 4.4	2.6 ± 3.7	10.4 ± 2.4	14.2 ± 3.5	4	no cytotoxic properties on leukocytes	strongly change their shape	–	–	–	–	–
CCCCCCCC(=O)N1CCC[C@H]1C(=O)N[C@@H](Cc1ccccc1)C(=O)N[C@@H](Cc1c[nH]c2ccccc12)C(=O)N[C@@H](CCCNC(=N)N)C(=O)N[C@H](C(=O)N[C@@H](CCCNC(=N)N)C(=O)N[C@H](C(=O)N[C@@H](CCCNC(=N)N)C(=O)N[C@@H](CCCNC(=N)N)C(N)=O)[C@@H](C)CC)[C@@H](C)CC [LF11-322-C8] (Octanoyl-PFWRIRIRR-NH2)	8	2.2 ± 0.5	9.0 ± 3.8	2.7 ± 3.7	12.9 ± 1.5	26.1 ± 2.5	8	–	–	≥ 256	–	–	–	–
CCCCCCCCCCCC(=O)N[C@@H](Cc1ccccc1)C(=O)N[C@@H](Cc1c[nH]c2ccccc12)C(=O)N[C@@H](CCCNC(=N)N)C(=O)N[C@@H](CCCNC(=N)N)C(=O)N[C@@H](Cc1ccccc1)C(=O)N[C@@H](Cc1c[nH]c2ccccc12)C(=O)N[C@@H](CCCNC(=N)N)C(=O)N[C@@H](CCCNC(=N)N)C(N)=O [LF11-227-C12] (Lauroyl-FWRRFWRR-NH2)	> 128	2.6 ± 1.4	4.3 ± 2.5	2.5 ± 3.6	11.6 ± 3.2	26.3 ± 12.3	> 128	–	–	–	significant (p < 0.05) reduction	–	–	–
CCCCCCCC(=O)N[C@@H](Cc1ccccc1)C(=O)N[C@@H](Cc1c[nH]c2ccccc12)C(=O)N[C@@H](CCCNC(=N)N)C(=O)N[C@@H](CCCNC(=N)N)C(=O)N[C@@H](Cc1ccccc1)C(=O)N[C@@H](Cc1c[nH]c2ccccc12)C(=O)N[C@@H](CCCNC(=N)N)C(=O)N[C@@H](CCCNC(=N)N)C(N)=O [LF11-227-C8] (Octanoyl-FWRRFWRR-NH2)	> 128	3.6 ± 2.8	10.5 ± 13.5	2.3 ± 3.7	13.0 ± 0.7	15.9 ± 2.6	> 128	–	–	–	–	–	–	–
CCCCCCCCCC(=O)N[C@@H](Cc1ccccc1)C(=O)N[C@@H](Cc1c[nH]c2ccccc12)C(=O)N[C@@H](CCCNC(=N)N)C(=O)N[C@@H](CCCNC(=N)N)C(=O)N[C@@H](Cc1ccccc1)C(=O)N[C@@H](Cc1c[nH]c2ccccc12)C(=O)N[C@@H](CCCNC(=N)N)C(=O)N[C@@H](CCCNC(=N)N)C(N)=O [LF11-227-C10] (Decanoyl-FWRRFWRR-NH2)	> 128	2.3 ± 0.6	4.2 ± 1.4	2.7 ± 4.2	18.0 ± 6.7	45.1 ± 20.5	> 128	–	–	–	–	–	–	–
CCCCCCCCCCCCCC(=O)N[C@@H](Cc1ccccc1)C(=O)N[C@@H](Cc1c[nH]c2ccccc12)C(=O)N[C@@H](CCCNC(=N)N)C(=O)N[C@@H](CCCNC(=N)N)C(=O)N[C@@H](Cc1ccccc1)C(=O)N[C@@H](Cc1c[nH]c2ccccc12)C(=O)N[C@@H](CCCNC(=N)N)C(=O)N[C@@H](CCCNC(=N)N)C(N)=O [LF11-227-C14] (Myristoyl-FWRRFWRR-NH2)	> 128	3.4 ± 2.1	3.1 ± 0.9	2.6 ± 3.5	18.3 ± 12.8	41.9 ± 19.9	> 128	–	–	–	significant (p < 0.05) reduction	37 ± 5	–	–
CCCCCCCCCCCC(=O)N1CCC[C@H]1C(=O)N[C@@H](Cc1ccccc1)C(=O)N[C@@H](Cc1c[nH]c2ccccc12)C(=O)N[C@@H](CCCNC(=N)N)C(=O)N[C@H](C(=O)N[C@@H](CCCNC(=N)N)C(=O)N[C@H](C(=O)N[C@@H](CCCNC(=N)N)C(=O)N[C@@H](CCCNC(=N)N)C(N)=O)[C@@H](C)CC)[C@@H](C)CC [LF11-322-C12] (Lauroyl-PFWRIRIRR-NH2)	32	2.4 ± 2.6	8.6 ± 8.6	3.2 ± 4.5	15.5 ± 1.2	36.1 ± 2.0	16	–	–	–	–	–	no significant difference in platelet count	significantly reduce the platelet count
